Data taken from patent US20210261539A1, “COMPOUND HAVING BET INHIBITORY ACTIVITY AND PREPARATION METHOD AND USE THEREFOR” (Shanghai Haihe Pharmaceutical Co., Ltd., priority 2018, published 2021).

Biological target: T1, BRD4 BD1 (Homo sapiens, UniProt O60885)
T1 construct: Protein BRD4 BD1 used in the assay was purchased from Active Motif (cat. 31380); purchased Active Motif 31380
Assay: HTRF in vitro enzyme activity assay, inhibition of BRD4 BD1 binding to acetylated H4 peptide
Conditions: IC50 values of the compounds against BRD4 BD1 binding; class symbols A/B/C
Procedure, shortened: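 Recombinant human BRD4 BD1 (30 nM final) incubated with compound and biotinylated tetra-acetylated H4(1-21) peptide, 30 min at 37 °C; 5-point 1:5 dilution series, 0.1% DMSO final. HTRF read after 3 h at RT with SA-XL665 and Eu(K)-labelled antibody; IC50 derived.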

SMILES | IC50 [nM]
CC1C(=O)N(C)c2ccc(N3C(=O)c4cccc(F)c4C3c3cccnc3)nc2N1C1CC1 (single isomer, unassigned) [Example A75-P3, 4-cyclopropyl-6-(7-fluoro-3-oxo-1-(pyridin-3-yl)isoindolin-2-yl)-1,3-dimethyl-3,4-dihydropyrido[2,3-b]pyrazin-2(1H)-one] | ≤ 10
C[C@@H]1C(=O)N(C)c2ccc(N3C(=O)c4ccccc4C3c3cccnc3)nc2N1C (stereo partly drawn) [Example A48-P4, (3R)-1,3,4-trimethyl-6-(1-oxo-3-(pyridin-3-yl)isoindolin-2-yl)-3,4-dihydropyrido [2,3-b]pyrazin-2-(1H)-one] | ≤ 10
CC1C(=O)N(C)c2ccc(N3C(=O)c4ccccc4C3Cc3ccccc3)nc2N1C1CC1 (racemic) [Example A37, 4-cyclopropyl-6-(1-benzyl-3-oxoisoindolin-2-yl)-1,3-dimethyl-3,4-dihydropyrido [2,3-b]pyrazin-2(1H)-one] | 100 to 1000
[2H]C([2H])([2H])N1C(=O)C(C)N(C2CC2)c2nc(N3C(=O)c4ccccc4C3c3ccc(F)cc3)ccc21 (stereo not shown) [Example A51-P3, 4-cyclopropyl-6-(1-(4-fluorophenyl)-3-oxoisoindolin-2-yl)-3-methyl-1-(trideuteromethyl)-3,4-dihydropyrido [2,3-B]pyrazin2(1 H)-one] | ≤ 10
CC(=O)N1c2nc(N3C(=O)CCC3c3ccc(F)cc3)ccc2N(C)C(=O)[C@H]1C (single isomer, unassigned) [Example A17-P1] | 100 to 1000
CC1C(=O)N(C)c2ccc(N3C(=O)c4ccccc4C3c3ccccn3)nc2N1C1CC1 (single isomer, unassigned) [Example A69-P3, 4-cyclopropyl-1,3-dimethyl-6-(1-oxo-3-(pyridin-2-yl)isoindolin-2-yl)-3,4-dihydropyrido[2,3-b]pyrazin-2(1H)-one] | ≤ 10
CC1C(=O)N(C)c2cnc(N3C(=O)c4ccccc4C3c3ccc(C(F)(F)F)cc3)nc2N1C1CC1 (single isomer, unassigned) [Example A93-P4, 8-cyclopropyl-5,7-dimethyl-2-(1-oxo-3-(4-(trifluoromethyl)phenyl)isoindolin-2-yl)-7,8-dihydropteridin-6(5H)-one] | ≤ 10
CC1C(=O)N(C)c2cnc(N3C(=O)c4ccccc4C3c3ccc(F)nc3)nc2N1C1CC1 (single isomer, unassigned) [Example A101-P3, 8-cyclopropyl-2-(1-(6-fluoropyridin-3-yl)-3-oxoisoindol-2-yl)-5,7-dimethyl-7,8-dihydropteridin-6(5H)-one] | ≤ 10
CCN1C(=O)[C@@H](C)Oc2nc(N3C(=O)c4ccccc4C3c3ccc(Cl)cc3)ccc21 (stereo partly drawn) [Example A109-P3, (R)-6-(1-(4-chlorophenyl)-3-oxoisoindolin-2-yl)-1-ethyl-3-methyl-1H-pyrido[2,3-B][1,4]oxazin-2-(3H)-one] | 10 to 100
C[C@H]1Oc2nc(N3C(=O)c4ccccc4C3c3cccnc3)c(F)cc2N(C)C1=O (single isomer, unassigned) [Example A124-P1] | 10 to 100
CC1C(=O)N(C)c2ccc(N3C(=O)c4c(cccc4[S+](C)[O-])C3c3cccnc3)nc2N1C1CC1 (single isomer, unassigned) [Example A60-P1] | ≤ 10
CC1C(=O)N(C)c2ccc(N3C(=O)c4ccccc4C3(O)c3ccc(Cl)cc3)nc2N1C1CC1 (racemic) [Example A30, 6-(1-(4-chlorophenyl)-1-hydroxy-3-oxoisoindolin-2-yl)-4-cyclopropyl-1,3-dimethyl-3,4-dihydropyrido [3,2-b]pyrazin-2(H)-one] | 10 to 100
C[C@H]1Oc2cc(N3C(=O)c4cc(F)ccc4C3c3cccnc3)ncc2N(C)C1=O (stereo partly drawn) [Example A117, (2R)-7-(5-fluoro-3-oxo-1-(pyridin-3-yl)isoindolin-2-yl)-2,4-dimethyl-2H-pyrido[4,3-b][1,4]oxazin-3(4H)-one] | 100 to 1000
CC1C(=O)N(C)c2ccc(N3C(=O)c4c(C(=O)N5CCN(C)CC5)cccc4C3c3ccc(F)cc3)nc2N1C1CC1 (single isomer, unassigned) [Example A82-P4] | ≤ 10
C[C@H]1Oc2nc(N3C(=O)c4ccccc4C3c3ccc(Cl)nc3)ccc2N(C)C1=O (single isomer, unassigned) [Example A122-P1] | 10 to 100
COC(=O)c1cccc2c1C(=O)N(c1ccc3c(n1)N(C1CC1)C(C)C(=O)N3C)C2c1ccc(F)cc1 (single isomer, unassigned) [Example A80-P3, Methyl 2-(4-cyclopropyl-1,3-dimethyl-2-oxo-1,2,3,4-tetrahydropyrido[2,3-b]pyrazin-6-yl)-1-(4-fluorophenyl)-3-oxoisoindoline-4-carboxylate] | ≤ 10

Further lines, results first:

IC50 [nM] | SMILES
≤ 10 | CC1C(=O)N(C)c2ccc(N3C(=O)c4ccccc4C3c3cccnc3)nc2N1C1(C)CC1 (stereo not shown) [Example A47-P4, 1,3-dimethyl-4-(1-methylcyclopropyl)-6-(1-oxo-3-(pyridin-3-yl)isoindolin-2-yl)-3,4-dihydropyrido [2,3-b]pyrazin-2(1H)-one]
10 to 100 | Cc1cc(N2C(=O)CCC2c2ccccc2)nc2c1N(C)C(=O)C(C)N2C1CC1 (single isomer, unassigned) [Example A9-P1-2, 4-cyclopropyl-1,3,8-trimethyl-6-(2-oxo-5-phenylpyrrolidin-1-yl)-3,4-dihydropyrido[2,3-b]pyrazin-2(1H)-one]
≤ 10 | CCSc1cccc2c1C(=O)N(c1ccc3c(n1)N(C1CC1)C(C)C(=O)N3C)C2c1cccnc1 (single isomer, unassigned) [Example A66-P3]
≤ 10 | Cc1ccc(-n2c3ccccc3c(=O)n2-c2ccc3c(n2)N(C2CC2)C(C)C(=O)N3C)cn1 (single isomer, unassigned) [Example A50-P1, 6-(1-(6-methyl-pyridin-3-yl)-3-oxo-1,3-dihydro-2H-indazol-2-yl)-4-cyclopropyl-1-methyl-3-methyl-3,4-dihydropyridine [2,3-b]pyrazin-2(1H)-one]
100 to 1000 | C[C@H]1Oc2nc(N3C(=O)c4cc(F)ccc4C3c3cccnc3)ncc2N(C)C1=O (stereo partly drawn) [Example A116-P3, (7R)-2-(5-fluoro-3-oxo-1-(pyridin-3-yl)isoindolin-2-yl)-5,7-dimethyl-5H-pyrimido[4,5-B][1,4]oxazin-6(7H)-one]
≤ 10 | CC1C(=O)N(CC(F)F)c2ccc(N3C(=O)c4ccccc4C3c3cccnc3)nc2N1C1CC1 (stereo not shown) [Example A53-P4, 4-cyclopropyl-1-(2,2-difluoroethyl)-3-methyl-6-(1-oxo-3-(pyridin-3-yl)isoindolin-2-yl)-3,4-dihydropyrido [2,3-b]pyrazin-2(1H)-one]
≤ 10 | C[C@H]1Oc2nc(N3C(=O)c4ccccc4C3c3ccc(F)cn3)ccc2N(C)C1=O (single isomer, unassigned) [Example A110-P1]
≤ 10 | CC1C(=O)N(C)c2ccc(N3C(=O)c4ccccc4C3c3ccccc3)nc2N1C1CC1 (single isomer, unassigned) [Example A11-P3, 4-cyclopropyl-1,3-dimethyl-6-(1-oxo-3-phenylisoindolin-2-yl)-3,4-dihydropyrido[2,3-b]pyrazin-2(1H)-one]
10 to 100 | C[C@H]1Oc2nc(N3C(=O)c4ccccc4C3c3ccc(F)nc3)ncc2N(C)C1=O (single isomer, unassigned) [Example A105-P1]
